Assay results from US20200360520A1, “USE OF RIFAMYCIN-QUINOLIZIDONE COUPLING MOLECULE” (priority 2019, published 2020).
In brackets after ≈: the same amount, converted by molar mass. Like-named read-outs stand apart in the source and are kept apart here.

What was measured:
Assay type in all cases: cell-based
[1] = system: Mycobacterium avium; experiment: MIC by micro broth dilution method (resazurin microtiter assay); details: read-out: Minimum Inhibitory Concentration (MIC)
[2] = system: Mycobacterium abscessus; experiment: as above; details: Mycobacteroides abscessus, read-out: Minimum Inhibitory Concentration (MIC)
[3] = system: Mycobacterium kansasii; experiment: as above; details: Mycobacterium kansasii, Mycobacterium kansasii, read-out: Minimum Inhibitory Concentration (MIC)
[4] = system: Mycobacterium avium; experiment: MBC test (plating on agar, CFU count); details: Mycobacterium avium, read-out: Minimum Bactericidal Concentration (MBC)
[5] = system: Mycobacterium abscessus; experiment: MBC test (plating on agar, CFU count); details: for Minimum Bactericidal Concentration (MBC): MH Culture Medium; for MBC: Mycobacteroides abscessus, 7H9 Culture Medium, read-out: Minimum Bactericidal Concentration (MBC)
[6] = system: Mycobacterium kansasii; experiment: MBC test (plating on agar, CFU count); details: Mycobacterium kansasii, Mycobacterium kansasii, read-out: Minimum Bactericidal Concentration (MBC)
[7] = system: Mycobacterium intracellulare; experiment: MIC by micro broth dilution method (resazurin microtiter assay); details: Mycobacterium intracellulare, MH Culture Medium, read-out: Minimum Inhibitory Concentration (MIC)
[8] = system: Mycobacterium massiliense; experiment: as above; details: for MIC: Mycobacteroides abscessus, read-out: Minimum Inhibitory Concentration (MIC)
[9] = system: Mycobacterium fortuitum; experiment: as above; details: Mycolicibacterium fortuitum, MH Culture Medium, read-out: Minimum Inhibitory Concentration (MIC)
[10] = system: Mycodacterium chelonei; experiment: as above; details: MH Culture Medium; Chelonei (standard strain); read-out: Minimum Inhibitory Concentration (MIC)
[11] = 7H9 Broth, Mycobacterium avium Smooth
[12] = MH Broth, Mycobacterium avium Smooth
[13] = MH Culture Medium, Avium (standard strain)
[14] = MH Culture Medium, clinically isolated strain Avium (S31)
[15] = MH Culture Medium, clinically isolated strain Avium (S123)
[16] = MH Culture Medium, clinically isolated strain Avium (S559)
[17] = MH Culture Medium, clinically isolated strain Avium (S568)
[18] = MH Culture Medium, clinically isolated strain Avium (S577)
[19] = MH Culture Medium, clinically isolated strain Avium (S597)
[20] = MH Culture Medium, clinically isolated strain Avium (S602)
[21] = MH Culture Medium, Kansasii (standard strain)
[22] = MH Culture Medium, clinically isolated strain Kansasii (S9)
[23] = MH Culture Medium, clinically isolated strain Kansasii (S199)
[24] = MH Culture Medium, clinically isolated strain Kansasii (S520)
[25] = MH Culture Medium, clinically isolated strain Kansasii (S609)
[26] = 7H9 Culture Medium, Mycobacterium avium Smooth
[27] = MH Culture Medium, Mycobacterium avium Smooth
[28] = Intracellulare (standard strain)
[29] = clinically isolated strain Intracellulare (S90)
[30] = clinically isolated strain Intracellulare (S261)
[31] = clinically isolated strain Intracellulare (S269)
[32] = clinically isolated strain Intracellulare (S290)
[33] = clinically isolated strain Intracellulare (S291)
[34] = clinically isolated strain Intracellulare (S298)
[35] = clinically isolated strain Intracellulare (S541)
[36] = clinically isolated strain Intracellulare (S623)
[37] = clinically isolated strain Intracellulare (ZPS)
[38] = clinically isolated strain intracellulare (S442)
[39] = MH Culture Medium, clinically isolated strain Massiliense (D18)
[40] = MH Culture Medium, clinically isolated strain Massiliense (D10)
[41] = clinically isolated strain Fortuitum (S103)
[42] = clinically isolated strain Fortuitum (S111)

With `CC[C@H]1OC(=O)[C@H](C)[C@@H](O[C@H]2C[C@@](C)(OC)[C@@H](O)[C@H](C)O2)[C@H](C)[C@@H](O[C@@H]2O[C@H](C)C[C@H](N(C)C)[C@H]2O)[C@](C)(OC)C[C@@H](C)C(=O)[C@H](C)[C@@H](O)[C@]1(C)O` [Clarithromycin] the MIC ([1]; 7H9 Broth, Mycobacterium avium Rough) was greater than 64 µg/mL, the MIC [1, 11] was 32 µg/mL (≈ 42.8 µM) and the MIC ([1]; MH Broth, Mycobacterium avium Rough) was greater than 64 µg/mL. For the same molecule, the MIC [1, 12] was greater than 64 µg/mL, the MIC [1, 13] was 0.0625 µg/mL (≈ 0.0836 µM) and the MIC [1, 14] was 0.125 µg/mL (≈ 0.167 µM). The MIC [1, 15] was 0.5 µg/mL (≈ 0.668 µM), the MIC [1, 16] was 0.25 µg/mL (≈ 0.334 µM) and the MIC [1, 17] was 4 µg/mL (≈ 5.35 µM). For the same molecule, the MIC [1, 18] was 0.25 µg/mL (≈ 0.334 µM), the MIC [1, 19] was 1 µg/mL (≈ 1.34 µM) and the MIC [1, 20] was 1 µg/mL (≈ 1.34 µM). The MIC ([2]; 7H9 Broth) was 16 µg/mL (≈ 21.4 µM), the MIC ([2]; MH Broth) was 64 µg/mL (≈ 85.6 µM) and the MIC ([3]; 7H9 Broth) was 2 µg/mL (≈ 2.67 µM). For the same molecule, the MIC ([3]; MH Broth) was 2 µg/mL (≈ 2.67 µM), the MIC [3, 21] was 0.0625 µg/mL (≈ 0.0836 µM) and the MIC [3, 22] was 0.125 µg/mL (≈ 0.167 µM). It also gave an MIC [3, 23] of 0.0625 µg/mL (≈ 0.0836 µM), an MIC [3, 24] of 0.0625 µg/mL (≈ 0.0836 µM) and an MIC [3, 25] of 0.125 µg/mL (≈ 0.167 µM). For the same molecule, the MBC ([4]; 7H9 Culture Medium, Mycobacterium avium Rough) was greater than 64 µg/mL, the MBC [4, 26] was greater than 64 µg/mL and the MBC ([4]; MH Culture Medium, Mycobacterium avium Rough) was greater than 64 µg/mL. The MBC [4, 27] was greater than 64 µg/mL, the “Minimum Bactericidal Concentration (MBC)” value [5] was greater than 64 µg/mL and the MBC [5] was greater than 64 µg/mL. For the same molecule, the MBC ([6]; 7H9 Culture Medium) was 64 µg/mL (≈ 85.6 µM), the MBC ([6]; MH Culture Medium) was greater than 64 µg/mL and the MIC [7, 28] was 0.0625 µg/mL (≈ 0.0836 µM). The MIC [7, 29] was 1 µg/mL (≈ 1.34 µM), the MIC [7, 30] was 1 µg/mL (≈ 1.34 µM) and the MIC [7, 31] was 1 µg/mL (≈ 1.34 µM). For the same molecule, the MIC [7, 32] was 1 µg/mL (≈ 1.34 µM), the MIC [7, 33] was 1 µg/mL (≈ 1.34 µM) and the MIC [7, 34] was 2 µg/mL (≈ 2.67 µM). For the same molecule, the MIC [7, 35] was 64 µg/mL (≈ 85.6 µM), the MIC [7, 36] was 4 µg/mL (≈ 5.35 µM) and the MIC [7, 37] was 1 µg/mL (≈ 1.34 µM). The MIC [7, 38] was 2 µg/mL (≈ 2.67 µM), the “Minimum Inhibitory Concentration (MIC)” value [8, 39] was 0.0625 µg/mL and the MIC [8, 40] was 0.25 µg/mL (≈ 0.334 µM). The MIC [8] was 0.0625 µg/mL (≈ 0.0836 µM), the MIC ([9]; Fortuitum (standard strain)) was 32 µg/mL (≈ 42.8 µM) and the MIC [9, 41] was greater than 64 µg/mL. The MIC [9, 42] was 2 µg/mL (≈ 2.67 µM) and the MIC [10] was 0.5 µg/mL (≈ 0.668 µM).

`O=C(O)c1cn(C2CC2)c2cc(N3CCNCC3)c(F)cc2c1=O` [Ciprofloxacin, ciprofloxacin] was tested, and the MIC [1, 11] was greater than 64 µg/mL, the MIC [1, 12] was greater than 64 µg/mL and the MIC ([2]; 7H9 Broth) was 16 µg/mL (≈ 48.3 µM). It also gave an MIC ([2]; MH Broth) greater than 64 µg/mL, an MIC ([3]; 7H9 Broth) greater than 64 µg/mL and an MIC ([3]; MH Broth) greater than 64 µg/mL. The MBC [4, 26] was greater than 64 µg/mL, the MBC [4, 27] was greater than 64 µg/mL and the “Minimum Bactericidal Concentration (MBC)” value [5] was greater than 64 µg/mL. The MBC [5] was greater than 64 µg/mL, the MBC ([6]; 7H9 Culture Medium) was greater than 64 µg/mL and the MBC ([6]; MH Culture Medium) was greater than 64 µg/mL.

`COc1c(N2C[C@@H]3CCCN[C@@H]3C2)c(F)cc2c(=O)c(C(=O)O)cn(C3CC3)c12` [Moxifloxacin, moxifloxacin] gave an MIC [1, 13] of 1 µg/mL (≈ 2.49 µM), an MIC [1, 14] of 8 µg/mL (≈ 19.9 µM) and an MIC [1, 15] of 0.5 µg/mL (≈ 1.25 µM). It also gave an MIC [1, 16] of 1 µg/mL (≈ 2.49 µM), an MIC [1, 17] of 0.5 µg/mL (≈ 1.25 µM) and an MIC [1, 18] of 0.5 µg/mL (≈ 1.25 µM). The MIC [1, 19] was 2 µg/mL (≈ 4.98 µM), the MIC [1, 20] was 4 µg/mL (≈ 9.96 µM) and the MIC [3, 21] was 0.0625 µg/mL (≈ 0.156 µM). It also gave an MIC [3, 22] of 0.0625 µg/mL (≈ 0.156 µM), an MIC [3, 23] of 0.0625 µg/mL (≈ 0.156 µM) and an MIC [3, 24] of 0.0625 µg/mL (≈ 0.156 µM). The MIC [3, 25] was 0.0625 µg/mL (≈ 0.156 µM), the MIC [7, 28] was 0.25 µg/mL (≈ 0.623 µM) and the MIC [7, 29] was 2 µg/mL (≈ 4.98 µM). For the same molecule, the MIC [7, 30] was 2 µg/mL (≈ 4.98 µM), the MIC [7, 31] was 2 µg/mL (≈ 4.98 µM) and the MIC [7, 32] was 2 µg/mL (≈ 4.98 µM). For the same molecule, the MIC [7, 33] was 1 µg/mL (≈ 2.49 µM), the MIC [7, 34] was 2 µg/mL (≈ 4.98 µM) and the MIC [7, 35] was 64 µg/mL (≈ 159 µM). For the same molecule, the MIC [7, 36] was 2 µg/mL (≈ 4.98 µM), the MIC [7, 37] was 1 µg/mL (≈ 2.49 µM) and the MIC [7, 38] was 2 µg/mL (≈ 4.98 µM). For the same molecule, the MIC [8, 40] was 32 µg/mL (≈ 79.7 µM), the MIC ([8]; MH Culture Medium, clinically isolated strain Massiliense (D14)) was 32 µg/mL (≈ 79.7 µM) and the MIC [8, 39] was 8 µg/mL (≈ 19.9 µM). The MIC ([9]; Fortuitum (standard strain)) was 1 µg/mL (≈ 2.49 µM), the MIC [9, 41] was 1 µg/mL (≈ 2.49 µM) and the MIC [9, 42] was 0.5 µg/mL (≈ 1.25 µM). It also gave an MIC [10] of 4 µg/mL (≈ 9.96 µM).
